# The OPERA property sets (Mansouri et al. 2018)
row,logP,SMILES
1,6.59,Clc1cc(Cl)c2oc3c(Cl)c(Cl)c(Cl)cc3c2c1
2,6.24,Clc1cc(Cl)c2oc3c(Cl)c(Cl)cc(Cl)c3c2c1
3,6.23,Clc1cc2oc3ccc(Cl)c(Cl)c3c2cc1Cl
4,6.11,Clc1cc2c(oc3c(Cl)cccc32)c(Cl)c1Cl
5,6.31,Clc1cc(Cl)c2c(oc3c(Cl)cccc32)c1Cl
6,6.23,Clc1ccc2c(c1)oc1c(Cl)c(Cl)cc(Cl)c12
7,6.34,Clc1cc(Cl)c2c(c1)oc1cc(Cl)cc(Cl)c12
8,6.25,Clc1cc(Cl)c2oc3c(Cl)c(Cl)ccc3c2c1
9,6.51,Clc1cc(Cl)c2c(oc3ccc(Cl)c(Cl)c32)c1Cl
10,6.59,Clc1cc(Cl)c2oc3c(Cl)ccc(Cl)c3c2c1Cl
11,6.31,Clc1cc2oc3c(Cl)c(Cl)ccc3c2cc1Cl

row,SMILES,logP
1,Clc1ccc2oc3c(Cl)c(Cl)c(Cl)c(Cl)c3c2c1,6.79
2,Clc1cc2oc3cc(Cl)c(Cl)cc3c2cc1Cl,6.53
3,Clc1c(Cl)c(Cl)c2c(oc3ccccc32)c1Cl,6.17
4,Clc1cc(Cl)c2oc3cc(Cl)c(Cl)cc3c2c1,6.73
5,Clc1cc2oc3c(Cl)c(Cl)c(Cl)cc3c2cc1Cl,6.92
6,Clc1cc(Cl)c2c(c1)oc1c(Cl)cc(Cl)cc12,6.37
7,Clc1cc2c(oc3c(Cl)c(Cl)c(Cl)c(Cl)c32)c(Cl)c1Cl,7.92
8,Clc1cc2oc3cc(Cl)c(Cl)c(Cl)c3c2cc1Cl,6.79
